Measurements as given in patent US5352659A, “Endothelin analogs and uses thereof” (Takeda Chemical Industries, priority 1991, dated 1994).
Bridge positions count the residues as written; N and C are the ends. Square brackets hold non-standard residues; d marks the D form. Peptide text beside a SMILES is read from it. Mpa = O=C(O)CCS

Legend:
[1] = test system: porcine coronary smooth muscles
Method: (1) Assay of Constrictor Suppressing Activity on Porcine Coronary Smooth Muscles
(§1) Spiral strips 2 mm×15 mm prepared from the coronary right ramus circumflexus from which the adventitial connective tissues and the endothelial cells were removed were set to 4 ml organ baths. The tension of each strip was detected by a force displacement transducer UL-10GR (Minebea), and recorded by a polygraph (NEC Sanei). The organ baths were maintained at 37° C., and filled with a Krebs-Henseleit solution (composition: 118 mM NaCl, 4.7 mM KCl, 2.5 mM CaCl2, 1.2 mM KH2 PO4, 25.0 mM NaHCO3, 1.2 mM MgSO4, 10.0 mM glucose) gassed with 95% O2 and 5% CO2.
(§2) A tension of 1.25 to 1.5 g was applied to each of the strips, followed by equilibration for 1.5 hours. 60 mM KCl was repeatedly applied thereto at intervals of 30 minutes until the constriction response became constant. After additional equilibration for 1.5 hours, a sample for assay was given thereto. The constriction of the strips was normalized by the constriction response of the individual strips to 60 mM KCl and statistically processed.
pA2 is a negative logarithm value of a molar concentration of a competitive antagonist necessary for shifting in parallel a dose response curve for an active drug (for example, ET-1) alone to the high dose side by a factor of 2.

endothelin receptor = test: Assay of affinity for receptor (inhibition of 125I-ET-1 binding to porcine myocardial membrane fraction); conditions: relative to ET-1 = 100
Method: Assay of Affinity for Receptor
A membrane fraction prepared from the porcine heart was diluted to 0.15 mg/ml by using a buffer solution for assay, and 100 μl of the resulting suspension of the membrane fraction was poured into each assay tube to use for assay. To this suspension of the membrane fraction was added 2 μl of 5 nM ^125 I labeled endothelin-1 solution. Further, 3 μl of a test peptide solution was added thereto, followed by incubation at a temperature of 25° C. for 1 hour. Then, the resulting suspension was diluted with 900 μl of the buffer solution for assay cooled with ice, and thereafter separated into a supernatant and a precipitate by centrifugation at 12,000×g for 10 minutes. Cell membranes and an endothelin receptor embedded therein were contained in the precipitate, and radioactive iodine-labeled endothelin combined with the receptor was also recovered in the precipitate. Accordingly, the amount of radioactive iodine-labeled endothelin combined with the endothelin receptor was determined by measuring the amount of radioactive iodine contained in the precipitate with a gamma-ray counter.

porcine coronary artery = test: Constrictor activity on porcine coronary smooth muscles; conditions: for Maximum constriction (% 60 mM KCl): porcine coronary artery strips, normalized to 60 mM KCl response; for Constrictor activity (specific activity): relative to ET-1 = 100, porcine coronary artery
Method: as §1, §2
(2) As to the antagonistic property of the peptides of the present invention to endothelin, the affinity for an endothelin receptor and the constrictor activity on porcine coronary smooth muscles (according to the method described in (1) described above) were assayed. The affinity for the receptor was assayed by the following method.

SMILES | Receptor binding activity (specific activity) (endothelin receptor) | Relative potency [1] | pA2 [1] | Maximum constriction (% 60 mM KCl) (porcine coronary artery) | Constrictor activity (specific activity) (porcine coronary artery)
CC[C@H](C)[C@H](NC(=O)[C@H](CC(C)C)NC(=O)[C@@H](NC(=O)[C@H](CC(C)C)NC(=O)[C@H](Cc1c[nH]cn1)NC(=O)[C@@H]1CSSC[C@H](N)C(=O)N[C@@H](CO)C(=O)N[C@H]2CSSC[C@H](NC(=O)[C@H](CCC(=O)O)NC(=O)[C@H](C)NC(=O)[C@H](CC(=O)O)NC(=O)[C@H](CCSC)NC(=O)[C@H](CC(C)C)NC(=O)[C@H](CO)NC(=O)[C@H](CO)NC2=O)C(=O)N[C@@H](C(C)C)C(=O)N[C@@H](Cc2ccc(O)cc2)C(=O)N[C@@H](Cc2ccccc2)C(=O)N1)[C@@H](C)O)C(=O)N[C@@H](Cc1c[nH]c2ccccc12)C(=O)O [Example 10, [Ala^9, Thr^18, Leu^19]-ET-1] (H-CSCSSLMDAECVYFCHLTLIW-OH; disulfide 1-15, 3-11) | 16 | 1.6 | 5.9 | 4 | < 0.1
CC[C@H](C)[C@H](NC(=O)[C@H](CC(C)C)NC(=O)[C@@H](NC(=O)[C@H](CC(C)C)NC(=O)[C@H](Cc1c[nH]cn1)NC(=O)[C@@H]1CSSCCC(=O)N[C@@H](CO)C(=O)N[C@H]2CSSC[C@H](NC(=O)[C@H](CCC(=O)O)NC(=O)[C@H](CCCCN)NC(=O)[C@H](CC(=O)O)NC(=O)[C@H](CCSC)NC(=O)[C@H](CC(C)C)NC(=O)[C@H](CO)NC(=O)[C@H](CO)NC2=O)C(=O)N[C@@H](C(C)C)C(=O)N[C@@H](Cc2ccc(O)cc2)C(=O)N[C@@H](Cc2ccccc2)C(=O)N1)[C@@H](C)O)C(=O)N[C@@H](Cc1c[nH]c2ccccc12)C(=O)O [Example 11, [Mpr^1, Thr^18, Leu^19]-ET-1] ([Mpa]SCSSLMDKECVYFCHLTLIW-OH; disulfide 1-15, 3-11) | 16 | 6 | 6.5 | 1 | < 0.1
CC[C@H](C)[C@H](NC(=O)[C@H](CC(C)C)NC(=O)[C@@H](NC(=O)[C@H](CC(C)C)NC(=O)[C@H](Cc1c[nH]cn1)NC(=O)[C@@H]1CSSC[C@H](N)C(=O)N[C@@H](C)C(=O)N[C@H]2CSSC[C@H](NC(=O)[C@H](CCC(=O)O)NC(=O)[C@H](CCCCN)NC(=O)[C@H](CC(=O)O)NC(=O)[C@H](CCSC)NC(=O)[C@H](CC(C)C)NC(=O)[C@H](CO)NC(=O)[C@H](CO)NC2=O)C(=O)N[C@@H](C(C)C)C(=O)N[C@@H](Cc2ccc(O)cc2)C(=O)N[C@@H](Cc2ccccc2)C(=O)N1)[C@@H](C)O)C(=O)N[C@@H](Cc1c[nH]c2ccccc12)C(=O)O [Example 12, [Ala^2, Thr^18, Leu^19]-ET-1] (H-CACSSLMDKECVYFCHLTLIW-OH; disulfide 1-15, 3-11) | 32 |  | 6.7 | 5 | < 0.1
CC[C@H](C)[C@H](NC(=O)[C@H](CC(C)C)NC(=O)[C@@H](NC(=O)[C@H](CC(C)C)NC(=O)[C@H](Cc1c[nH]cn1)NC(=O)[C@@H]1CSSC[C@H](N)C(=O)N[C@@H](CO)C(=O)N[C@H]2CSSC[C@H](NC(=O)[C@H](CCC(=O)O)NC(=O)[C@H](CCCCN)NC(=O)[C@H](CC(=O)O)NC(=O)[C@H](CCSC)NC(=O)[C@H](CC(C)C)NC(=O)[C@H](CO)NC(=O)[C@H](C)NC2=O)C(=O)N[C@@H](C(C)C)C(=O)N[C@@H](Cc2ccc(O)cc2)C(=O)N[C@@H](Cc2ccccc2)C(=O)N1)[C@@H](C)O)C(=O)N[C@@H](Cc1c[nH]c2ccccc12)C(=O)O [Example 13, [Ala^4, Thr^18, Leu^19]-ET-1] (H-CSCASLMDKECVYFCHLTLIW-OH; disulfide 1-15, 3-11) | 57 |  | 6.9 | 6 | < 0.1

Continued, in another order:

Receptor binding activity (specific activity) (endothelin receptor) | SMILES | Relative potency [1] | pA2 [1] | Maximum constriction (% 60 mM KCl) (porcine coronary artery) | Constrictor activity (specific activity) (porcine coronary artery)
15 | CC[C@H](C)[C@H](NC(=O)[C@H](CC(C)C)NC(=O)[C@H](CO)NC(=O)[C@H](CC(C)C)NC(=O)[C@H](Cc1c[nH]cn1)NC(=O)[C@@H]1CSSC[C@H](N)C(=O)N[C@@H](CO)C(=O)N[C@H]2CSSC[C@H](NC(=O)[C@H](CCC(=O)O)NC(=O)[C@H](CCCCN)NC(=O)[C@H](CC(=O)O)NC(=O)[C@H](CCSC)NC(=O)[C@H](CC(C)C)NC(=O)[C@H](CO)NC(=O)[C@H](CO)NC2=O)C(=O)N[C@@H](C(C)C)C(=O)N[C@@H](Cc2ccc(O)cc2)C(=O)N[C@@H](Cc2ccccc2)C(=O)N1)C(=O)N[C@@H](Cc1c[nH]c2ccccc12)C(=O)O [Example 6, [Ser^18, Leu^19]-ET-1] (H-CSCSSLMDKECVYFCHLSLIW-OH; disulfide 1-15, 3-11) | 63 | 7.5 | 1 | < 0.1
9.5 | CC[C@H](C)[C@H](NC(=O)[C@H](CC(C)C)NC(=O)CNC(=O)[C@H](CC(C)C)NC(=O)[C@H](Cc1c[nH]cn1)NC(=O)[C@@H]1CSSC[C@H](N)C(=O)N[C@@H](CO)C(=O)N[C@H]2CSSC[C@H](NC(=O)[C@H](CCC(=O)O)NC(=O)[C@H](CCCCN)NC(=O)[C@H](CC(=O)O)NC(=O)[C@H](CCSC)NC(=O)[C@H](CC(C)C)NC(=O)[C@H](CO)NC(=O)[C@H](CO)NC2=O)C(=O)N[C@@H](C(C)C)C(=O)N[C@@H](Cc2ccc(O)cc2)C(=O)N[C@@H](Cc2ccccc2)C(=O)N1)C(=O)N[C@@H](Cc1c[nH]c2ccccc12)C(=O)O [Example 8, [Gly^18, Leu^19]-ET-1] (H-CSCSSLMDKECVYFCHLGLIW-OH; disulfide 1-15, 3-11) | 10 | 6.7 | 14 | < 0.1
8.6 | CC[C@H](C)[C@H](NC(=O)[C@H](CC(C)C)NC(=O)[C@@H](NC(=O)[C@H](CC(C)C)NC(=O)[C@H](Cc1c[nH]cn1)NC(=O)[C@@H]1CSSC[C@H](N)C(=O)N[C@@H](CO)C(=O)N[C@H]2CSSC[C@H](NC(=O)[C@H](CCC(=O)O)NC(=O)[C@H](CCCCN)NC(=O)[C@H](CC(=O)O)NC(=O)[C@H](CCSC)NC(=O)[C@H](CC(C)C)NC(=O)[C@H](C)NC(=O)[C@H](CO)NC2=O)C(=O)N[C@@H](C(C)C)C(=O)N[C@@H](Cc2ccc(O)cc2)C(=O)N[C@@H](Cc2ccccc2)C(=O)N1)[C@@H](C)O)C(=O)N[C@@H](Cc1c[nH]c2ccccc12)C(=O)O [Example 14, [Ala^5, Thr^18, Leu^19]-ET-1] (H-CSCSALMDKECVYFCHLTLIW-OH; disulfide 1-15, 3-11) | 0.6 | 5.5 | 6 | < 0.1
